Experimental data as given in ChEMBL document CHEMBL1123416, “Imidazo[2,1-b]benzothiazoles. 2. New immunosuppressive agents” (1986).

Experiments:
Assay type in all cases: functional
Mus musculus [1] = experiment: Significant suppressive activity of delayed type hypersensitivity (DTH) with out inhibition of humoral immunity in mice by oral administration at dose of 400 mg/kg
Mus musculus [2] = experiment: Significant suppressive activity of delayed type hypersensitivity (DTH) with out inhibition of humoral immunity in mice by oral administration at dose of 50 mg/kg
Mus musculus [3] = experiment: Compound was tested for its significant suppressive activity of delayed type hypersensitivity (DTH) with out inhibition of humoral immunity in mice by oral administration at dose of 12.5 mg/kg
Mus musculus [4] = experiment: Compound was tested for its significant suppressive activity of delayed type hypersensitivity (DTH) with out inhibition of humoral immunity in mice by oral administration at dose of 100 mg/kg
Mus musculus [5] = experiment: Compound was tested for its significant suppressive activity of delayed type hypersensitivity (DTH) with out inhibition of humoral immunity in mice by oral administration at dose of 200 mg/kg
Mus musculus [6] = experiment: Compound was tested for its significant suppressive activity of delayed type hypersensitivity (DTH) with out inhibition of humoral immunity in mice by oral administration at dose of 25 mg/kg
Mus musculus [7] = experiment: The compound was tested for its significant suppressive activity of delayed type hypersensitivity (DTH) with out inhibition of humoral immunity in mice by oral administration at dose of 400 mg/kg

Structure (SMILES)	Increase in ear thickness (Mus musculus [1])	inhibition in vivo at 400 mg/kg (Mus musculus [1])	Increase in ear thickness (Mus musculus [2])	inhibition in vivo at 50 mg/kg (Mus musculus [2])	other results
Cc1ccc(-c2cn3c(n2)sc2ccccc23)cc1O	3.2 1/100mm	39.6%	3.3 1/100mm	37.7%	–
CN(C)c1cccc(-c2cn3c(n2)sc2ccccc23)c1	–	–	–	–	Increase in ear thickness (Mus musculus [3]): 3.4 1/100mm; inhibition in vivo at 12.5 mg/kg (Mus musculus [3]): 17%; Increase in ear thickness (Mus musculus [4]): 3.2 1/100mm; inhibition in vivo at 100 mg/kg (Mus musculus [4]): 21%
CS(=O)(=O)Nc1cccc(-c2cn3c(n2)sc2ccccc23)c1	3.6 1/100mm	32.1%	3.8 1/100mm	28.3%	–
COC(=O)c1cc(-c2cn3c(n2)sc2ccccc23)ccc1O	2.3 1/100mm	42.5%	4.2 1/100mm	-5%	–
CC(=O)Nc1ccc(-c2cn3c(n2)sc2ccccc23)cc1	–	–	3.6 1/100mm	–	Increase in ear thickness (Mus musculus [5]): 3 1/100mm; inhibition in vivo at 200 mg/kg (Mus musculus [5]): 9.1%; inhibition in vivo at 25 mg/kg (Mus musculus [6]): -9.1%
O=[N+]([O-])c1cccc(-c2cn3c(n2)sc2ccccc23)c1	2.1 1/100mm	60.4%	3.2 1/100mm	39.6%	–
Oc1cccc(-c2cn3c(n2)sc2cc(O)ccc23)c1	2.4 1/100mm	41.5%	2.3 1/100mm	43.9%	–
Oc1ccccc1-c1cn2c(n1)sc1ccccc12	1.4 1/100mm	65%	3.5 1/100mm	12.5%	–
Oc1ccc(-c2cn3c(n2)sc2ccccc23)cc1	3.6 1/100mm	40.9%	3.4 1/100mm	44.2%	–
N#Cc1cccc(-c2cn3c(n2)sc2ccccc23)c1	4.7 1/100mm	-46.9%	3 1/100mm	6.3%	–
Brc1ccc(-c2cn3c(n2)sc2ccccc23)cc1	4.9 1/100mm	5.8%	5.5 1/100mm	-5.8%	–
Oc1cccc(-c2cn3c(nc4ccccc43)s2)c1	3.8 1/100mm	7.3%	2.3 1/100mm	43.9%	–
Ic1ccc(-c2cn3c(n2)sc2ccccc23)cc1	5.3 1/100mm	-1.9%	6.4 1/100mm	-23.1%	–
Cc1ccc2c(c1)sc1nc(-c3cccc(O)c3)cn12	3.8 1/100mm	5%	4.5 1/100mm	-12.5%	–
Oc1ccc(-c2cn3c(n2)sc2ccccc23)cc1O	–	–	–	–	Increase in ear thickness (Mus musculus [5]): 3.1 1/100mm; inhibition in vivo at 200 mg/kg (Mus musculus [5]): 3.1%; Increase in ear thickness (Mus musculus [6]): 2.5 1/100mm; inhibition in vivo at 25 mg/kg (Mus musculus [6]): 21.9%
COc1ccccc1-c1cn2c(n1)sc1ccccc12	4.7 1/100mm	17.5%	5.5 1/100mm	3.5%	–
CC(=O)Nc1cccc(-c2cn3c(n2)sc2ccccc23)c1	3.9 1/100mm	26%	3.5 1/100mm	34%	–
Cc1ccc(-c2cn3c(n2)sc2ccccc23)cc1S(C)(=O)=O	4.9 1/100mm	3.9%	1.9 1/100mm	53.7%	–
O=[N+]([O-])c1cc(-c2cn3c(n2)sc2ccccc23)ccc1O	4.2 1/100mm	20.8%	4.1 1/100mm	22.6%	–
COc1cccc(-c2cn3c(n2)sc2ccccc23)c1	2.1 1/100mm	34.4%	2.8 1/100mm	12.5%	–
Cc1c(-c2cccc(O)c2)nc2sc3ccccc3n12	3.6 1/100mm	16.3%	3.9 1/100mm	9.3%	–
c1ccc(-c2cn3c(n2)sc2ccccc23)cc1	5.7 1/100mm	1.7%	6 1/100mm	-3.4%	–

Structure (SMILES)	Increase in ear thickness (Mus musculus [1])	inhibition in vivo at 400 mg/kg (Mus musculus [1])	Increase in ear thickness (Mus musculus [2])	inhibition in vivo at 50 mg/kg (Mus musculus [2])	other results
Nc1cccc(-c2cn3c(n2)sc2ccccc23)c1	4.3 1/100mm	18.9%	4.1 1/100mm	22.6%	–
O=C(O)c1ccc(-c2cn3c(n2)sc2ccccc23)cc1	2.9 1/100mm	49.1%	3.8 1/100mm	33.3%	–
Clc1cccc(-c2cn3c(n2)sc2ccccc23)c1	5.8 1/100mm	-11.5%	5 1/100mm	3.8%	–
Clc1ccccc1-c1cn2c(n1)sc1ccccc12	6.3 1/100mm	-21.2%	5 1/100mm	3.8%	–
Oc1cc(O)cc(-c2cn3c(n2)sc2ccccc23)c1	3.6 1/100mm	21.7%	5.8 1/100mm	-26.1%	–
Cc1ccc(-c2cn3c(n2)sc2ccccc23)cc1	–	–	5.8 1/100mm	-11.5%	Increase in ear thickness (Mus musculus [7]): 5.3 1/100mm; inhibition in vivo at 400 mg/kg (Mus musculus [7]): -1.9%
COc1ccc(-c2cn3c(n2)sc2ccccc23)cc1	4.6 1/100mm	11.5%	5.3 1/100mm	-1.9%	–
O=[N+]([O-])c1ccc(-c2cn3c(n2)sc2ccccc23)cc1	5 1/100mm	27.5%	5.4 1/100mm	21.7%	–
Oc1cccc(-c2cn3c(n2)oc2ccccc23)c1	2.9 1/100mm	9.4%	2.6 1/100mm	18.8%	–
COC(=O)c1ccc(-c2cn3c(n2)sc2ccccc23)cc1	4.9 1/100mm	14%	6 1/100mm	-5.3%	–
COC(=O)c1cccc(-c2cn3c(n2)sc2ccccc23)c1	1.9 1/100mm	64.2%	1.9 1/100mm	64.2%	–
COc1ccc(-c2cn3c(n2)sc2ccccc23)cc1O	4.6 1/100mm	13.2%	4.9 1/100mm	7.5%	–
Cc1ccc(-c2cn3c(n2)sc2ccccc23)cc1[S+](C)[O-] (stereo not given)	–	–	–	–	Increase in ear thickness (Mus musculus [5]): 1.9 1/100mm; inhibition in vivo at 200 mg/kg (Mus musculus [5]): 53.7%; Increase in ear thickness (Mus musculus [6]): 3.9 1/100mm; inhibition in vivo at 25 mg/kg (Mus musculus [6]): 4.9%
COc1ccc2c(c1)sc1nc(-c3cccc(O)c3)cn12	4.9 1/100mm	-22.5%	4.8 1/100mm	-20%	–
Oc1cc(-c2cn3c(n2)sc2ccccc23)ccc1Cl	3.7 1/100mm	14%	2.4 1/100mm	44.2%	–
COC(=O)c1cccc(-c2cn3c(n2)sc2cc(O)ccc23)c1	5.1 1/100mm	-24.4%	3.8 1/100mm	7.3%	–
O=C(O)c1cccc(-c2cn3c(n2)sc2ccccc23)c1	3.2 1/100mm	25.6%	2.8 1/100mm	34.9%	–
Clc1ccc(-c2cn3c(n2)sc2ccccc23)cc1	5.9 1/100mm	14.5%	4.8 1/100mm	30.4%	–
Fc1ccc(-c2cn3c(n2)sc2ccccc23)cc1	5.9 1/100mm	-13.5%	5 1/100mm	-3.8%	–
O=CNc1cccc(-c2cn3c(n2)sc2ccccc23)c1	–	–	–	–	Increase in ear thickness (Mus musculus [5]): 2.2 1/100mm; inhibition in vivo at 200 mg/kg (Mus musculus [5]): 48.8%; Increase in ear thickness (Mus musculus [6]): 2.6 1/100mm; inhibition in vivo at 25 mg/kg (Mus musculus [6]): 39.5%
COc1ccc2nc(NC(=O)Nc3ccccc3)sc2c1 [FRENTIZOLE]	–	–	3.5 1/100mm	42.6%	–
